What was measured:
[1] = target: T1, SpoIIIE (Bacillus subtilis, UniProt P21458); assay: optical tweezers rupture force of SpoIIIE-DNA tether (indirect sign of nucleotide binding); settings: 1 mM ADP, no ATP; dsDNA
T1 construct: N-terminal biotin tag (PinPoint Xa-1) fused to SpoIIIE from plasmid pJB103 (Bath et al. 2000); recombinant, purified; homo-hexamer

[2] = target: T1, SpoIIIE; assay: single-molecule optical tweezers DNA translocation; format: biochemical; settings: dsDNA, 50 mM Tris-HCl pH 7.5, 10 mM MgCl2

T1 sequence (P21458 175-787): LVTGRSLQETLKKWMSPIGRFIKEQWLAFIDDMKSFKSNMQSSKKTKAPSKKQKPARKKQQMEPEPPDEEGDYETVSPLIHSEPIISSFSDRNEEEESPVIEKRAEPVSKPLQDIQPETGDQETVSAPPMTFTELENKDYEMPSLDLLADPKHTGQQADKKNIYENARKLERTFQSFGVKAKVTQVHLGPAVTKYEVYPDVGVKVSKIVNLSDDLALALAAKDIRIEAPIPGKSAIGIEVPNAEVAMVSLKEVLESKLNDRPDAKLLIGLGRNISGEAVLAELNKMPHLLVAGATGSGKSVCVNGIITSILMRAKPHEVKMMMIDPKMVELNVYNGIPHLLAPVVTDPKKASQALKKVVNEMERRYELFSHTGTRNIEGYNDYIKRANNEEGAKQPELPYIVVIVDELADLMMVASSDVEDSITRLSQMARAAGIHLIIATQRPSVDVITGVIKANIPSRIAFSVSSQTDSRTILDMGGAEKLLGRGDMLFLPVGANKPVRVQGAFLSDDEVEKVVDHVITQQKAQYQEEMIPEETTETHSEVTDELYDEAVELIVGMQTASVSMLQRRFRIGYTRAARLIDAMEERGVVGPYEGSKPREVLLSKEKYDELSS

Km [2] [µM] | Compound | optical tweezers rupture force of SpoIIIE-DNA tether (indirect sign of nucleotid) [1]
 | Nc1ncnc2c1ncn2[C@@H]1O[C@H](COP(=O)(O)OP(=O)(O)O)[C@@H](O)[C@H]1O [ADP] | In buffers containing only ADP or ATPγS, SpoIIIE could bind to DNA
505 ± 50 | Nc1ncnc2c1ncn2[C@@H]1O[C@H](COP(=O)(O)OP(=O)(O)OP(=O)(O)O)[C@@H](O)[C@H]1O [ATP] | 

— PMC4728128, “Two-subunit DNA escort mechanism and inactive subunit bypass in an ultra-fast ring ATPase” (eLife, 2015)
